Several values for one entry are separate records, joined by “and”; a condition that tells them apart may be missing. Equal entries are not always repeated. Entries after “also recorded” stand apart in the source; their conditions may differ. Where two headings read alike, the source gives them in different places. Non-standard residues stand in square brackets, D forms with d. Residues, ends and D or L forms follow the SMILES beside them.
Assays:
GPR54 = GPR54 (Homo sapiens, UniProt Q969F8); test: Whole cell receptor binding assay, competition with 125I-labelled kisspeptin-10; design: expressed in transfected cells; host or cells: CHO, stably transfected; settings: competition with I125-labelled kisspeptin-10
Protocol: Whole Cell Receptor Binding Assay—Kisspeptin-10 and analogues were prepared at 1:1000 dilutions in HEPES modified Dulbecco's modified Eagle's medium (DMEM) supplemented with ^125I-labelled Kisspeptin to produce 100,000 counts per minute (cpm). Cell monolayers were placed on ice and exposed to 0.5 mls peptide (10 pM-1 uM); the cells were then incubated at 4° C. for 4 hr. After 4 hrs, cells were washed twice with ice cold Dulbecco's phosphate buffered saline (DPBS; with Calcium and Magnesium) and then 0.5 mls 0.1M Sodium Hydroxide (NaOH) were added to cells for 20 minutes, shaking to lyse cells. Lysates were transferred to plastic tubes and bound radioactivity counted on the gamma counter for 60 seconds.

GnRH neurons = test: GnRH neuron firing, targeted extracellular recordings in brain slices; assay type: cell-based, mouse; settings: for response of GnRH neuron firing to 1 nM kisspeptin-10 after pretreatment with peptide: 1, 10, 100 nM peptide
Protocol: Firing of GnRH neurons were recorded in brain slices from transgenic female mice in which GFP is genetically targeted to GnRH neurons (42). Mice were housed on a 14 h light, 10 h dark cycle, with lights off at 1630 h, and were maintained on Harlan 2916 rodent chow (Harlan) and water ad libitum. All procedures were approved by the Animal Care and Use Committee of University of Virginia and were conducted within the guidelines of the National Research Council's Guide for the Care and Use of Laboratory Animals. Adult female GnRH-GFP mice were ovariectomized under isoflurane (Abbott Laboratories) anesthesia. Postoperative analgesia was provided by a long-acting local anesthetic (0.25% bupivicaine; 7.5 μl/site; Abbott Laboratories). At the time of surgery, mice received Silastic (Dow Corning) capsules containing 0.625 μg estradiol in sesame oil. […] No more than four cells from a single animal were recorded, all in different slices.
Brain slices were prepared using previously described method (44). Briefly, all solutions were bubbled with a 95% O2/5% CO2 mixture throughout the experiments and for at least 15 min before exposure to the tissue. The brain was rapidly removed and placed in ice-cold, high-sucrose saline solution containing 250 mM sucrose, 3.5 mM KCl, 26 mM NaHCO3, 10 mM glucose, 1.25 mM Na2HPO4, 1.2 mM MgSO4, and 2.5 mM MgCl2. Coronal 300-μm brain slices were cut with a Vibratome 3000 (Technical Products, International, Inc., St. Louis, Mo.). Slices were incubated for 30 min at 30-32 C in a solution of 50% high-sucrose saline and 50% normal saline (NS) containing 135 mM NaCl, 3.5 mM KCl, 10 mM glucose, 1.3 mM Na2HPO4, 1.2 mM MgSO4, and 2.5 mM CaCl2 and then were transferred to a solution of 100% NS at room temperature and kept at least 30 min and no more than 6 h before recording.
Targeted extracellular recordings (also known as loose-patch) were used to study effects of kisspeptin-10 and peptide 234 on GnRH neuron firing activity (45). […] Although these events are not action potentials per se, they accurately reflect changes in the action potential firing rate. For simplicity, we have used the phrases firing rate, firing pattern, and/or firing activity to refer to these events.
Individual brain slices were placed in a recording chamber continuously superfused with oxygenated NS solution and kept at 29-31 C. Cells were visualized with an Olympus BX50WI upright fluorescent microscope with infrared differential interference contrast (Opelco). GnRH neurons were identified by brief illumination at 470 nm to visualize the GFP signal. Patch borosilicate pipettes (World Precision Instruments), which ranged from 1.5-3 ΩM were filled with normal HEPES-buffered solution containing 150 mM NaCl, 10 mM HEPES, 10 mM glucose, 2.5 mM CaCl2, 1.3 mM MgCl2, and 3.5 mM KCl. Pipettes were placed in contact with the GnRH neurons using an MP-285 micromanipulator (Sutter Instruments). Seal resistances ranged from 8 MΩ and either remained stable or increased during recording up to as high as 50 MΩ. Current traces were obtained using an EPC-8 amplifier (HEKA) with the PulseControl XOP (Instrutech) running in Igor Pro (Wavemetrics) on the G4 Macintosh computer (Apple Computer) to acquire data. A voltage-clamp mode with a pipette holding potential of 0 mV, filtering at 10 kHz, digitized with an ITC-18 acquisition interface (Instrutech) was used for the recordings.
Different doses (1 nM, 10 nM, 100 nM) of peptide 234 were used to examine its antagonistic action on kisspeptin-10 activation of gpr-54. Positive control cells were recorded for a 10-min stable baseline, and then treated with kisspeptin-10 for 5 min, followed by a 15-min washout. Experimental cells were recorded for a 5-min stable baseline in NS, followed by 10 min in peptide 234 (1, 10 or 100 nM), then 5 min in kisspeptin-10 plus the same dose of antagonist, followed by a wash in NS. […]

[1] = system: CHO cells stably expressing human gpr-54; test: Cell migration (wound healing) assay in CHO cells; assay type: cell-based, Chinese hamster
Protocol: (§1) Human Umbilical Vein Endothelial Cells (HUVECs) isolated from neonatal umbilical cord were used as they endogenously express gpr-54, which is though to be involved in cell migration in the placenta. Chinese hamster ovary (CHO) cells which stably express the human gpr-54 receptor were used as a model cell line for wound healing assays. […] Complete media was added along with 1 nM Kisspeptin-10 for HUVECs and 100 nM Kisspeptin-10 for CHO cells, the optimal concentrations to inhibit cell migration (wound healing) in each cell type, in the presence and absence of antagonist 233, 234, 273 and 276 for HUVECs and 234 for CHOs. […] Cells were photographed on the axiovert 2000 at 20× magnification in phase contrast (Hori et al., 2001. Metastin suppresses the motility and growth of CHO cells transfected with its receptor. Biochem Biophys Res Commun 286, 958-963; Stafford et al., 2002, Identification and characterization of mouse metastasis-suppressor KiSS1 and its G-protein-coupled receptor. Cancer Res 62, 5399-5404).

[2] = system: HUVECs (Human Umbilical Vein Endothelial Cells); test: Cell migration (wound healing) assay in HUVECs; assay type: cell-based
Protocol: as §1

Chain of GPR54 (Q969F8 whole entry): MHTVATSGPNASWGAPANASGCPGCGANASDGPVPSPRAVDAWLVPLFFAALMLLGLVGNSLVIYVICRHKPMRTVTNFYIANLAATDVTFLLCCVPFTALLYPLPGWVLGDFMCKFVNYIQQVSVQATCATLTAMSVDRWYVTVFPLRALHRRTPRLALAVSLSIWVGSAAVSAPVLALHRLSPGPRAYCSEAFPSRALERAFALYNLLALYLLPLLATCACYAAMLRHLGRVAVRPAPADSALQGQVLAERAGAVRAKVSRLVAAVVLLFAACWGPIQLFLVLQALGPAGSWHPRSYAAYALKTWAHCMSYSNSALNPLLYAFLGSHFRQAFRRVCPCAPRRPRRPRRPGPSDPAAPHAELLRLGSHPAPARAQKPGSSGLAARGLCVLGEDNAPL

Kd (GPR54; read-out: binding affinity) | Structure (SMILES) | Kd (GPR54; binding affinity) [nM] | GnRH neuron firing activity (GnRH neurons; 1 nM agonist, listed as kisspeptin-10) | inhibition of cell migration ([1]; 100 nM) [%] | inhibition of migration in to the wound ([2]; 1 nM) [%] | GnRH neuron firing activity, peptide alone (GnRH neurons; 1 nM, post) [Hz] | GnRH neuron firing activity, peptide alone (GnRH neurons; 1 nM, pre) [Hz] | GnRH neuron firing activity, peptide alone (GnRH neurons; 10 nM, post) [Hz] | GnRH neuron firing activity, peptide alone (GnRH neurons; 10 nM, pre) [Hz] | GnRH neuron firing activity, peptide alone (GnRH neurons; 100 nM, post) [Hz] | GnRH neuron firing activity, peptide alone (GnRH neurons; 100 nM, pre) [Hz] | effect of peptide alone on GnRH neuron firing activity (GnRH neurons; 1, 10, 100 nM) | response of GnRH neuron firing to 1 nM kisspeptin-10 after pretreatment with peptide (GnRH neurons) | response of GnRH neuron firing to 1 nM kisspeptin-10 after pretreatment with peptide (GnRH neurons; listed as peptide 234) | effect on inhibition of cell migration by 100 nM Kisspeptin ([1]; 22 hrs) | inhibition of migration by 1 nM Kisspeptin in the presence of peptide ([2]; 22 hrs) [%]
– | CC(C)C[C@H](NC(=O)CNC(=O)[C@H](Cc1ccccc1)NC(=O)[C@H](CO)NC(=O)[C@H](CC(N)=O)NC(=O)[C@H](Cc1c[nH]c2ccccc12)NC(=O)[C@H](CC(N)=O)NC(=O)[C@@H](N)Cc1ccc(O)cc1)C(=O)N[C@@H](CCCNC(=N)N)C(=O)N[C@@H](Cc1ccccc1)C(N)=O [Kiss, reference compound] | 2 | significantly increased; also recorded: markedly increased | 50 | 50 | – | – | – | – | – | – | – | – | – | – | –
2 nM and 2.7 nM | CC(=O)N[C@H](C)C(=O)N[C@@H](CC(N)=O)C(=O)N[C@@H](Cc1c[nH]c2ccccc12)C(=O)N[C@@H](CC(N)=O)C(=O)NCC(=O)N[C@@H](Cc1ccccc1)C(=O)NCC(=O)N[C@H](Cc1c[nH]c2ccccc12)C(=O)N[C@@H](CCCNC(=N)N)C(=O)N[C@@H](Cc1ccccc1)C(N)=O [Peptide 234] (Ac-[dA]NWNGFG[dW]RF-NH2) | – | – | – | – | 0.27±0.08 | 0.18±0.12 | 0.29±0.17 | 0.34±0.15 | 0.62±0.14 | 0.45±0.12 | no effect | block | significantly reduced; also recorded: blocked | completely abolishes | 10
